From EP1200099B1, “SYNERGISTIC COMPOSITION COMPRISING DAUNORUBICIN DERIVATIVES AND ANTI[…]” (Pharmacia Italia S.p.A., priority 1999, dated 2001)

System: disseminated L1210 murine leukemia
Assay: Antileukemic activity on disseminated L1210 murine leukemia (in vivo survival)
Design: species or system mouse CD2F1
Details: for toxicity (in words): single agents: gemcitabine 15 and 60 mg/kg ip day 1, PNU 159548 1 and 1.5 mg/kg iv day 1
Source text: The superadditive actions of the combination preparation of the present invention may be shown for instance by in vivo tests for the antileukemic activity on disseminated L1210 murine leukemia. The combination of Ia with gemcitabine (Table 1) or 5-Fluorouracil tested at the different doses and schedules, produces favorable ILS% values (Increase in life span: [(median survival time of treated mice/median survival time of controls)x 100]-100), indicating a synergistic effect.
By combining gemcitabine and PNU 159548 at the same doses and with the same schedule, an increase of activity with ILS% values of 117 and 204 were observed, indicating a synergistic effect as shown by the combination index (CI) of […], respectively.
For these experiments Ia was solubilized in [Cremophor® /EtOH = 6.5:3.5]/[normal saline]=20/80 v/v, while standard pharmaceutical preparation were used for the antimetabolite compounds.

[1] = gemcitabine alone, ip day +1, 15 mg/kg/day
[2] = gemcitabine alone, ip day +1, 60 mg/kg/day
[3] = PNU 159548 alone, iv day +1, 1 mg/kg/day
[4] = PNU 159548 alone, iv day +1, 1.5 mg/kg/day

SMILES	ILS% [1]	LTS: long-term survivors (>60 days) at the end of the experiments [1]	TOX: Number of toxic deaths/number of mice [1]	ILS% [2]	LTS: long-term survivors (>60 days) at the end of the experiments [2]	TOX: Number of toxic deaths/number of mice [2]	toxicity (in words)	LTS: long-term survivors (>60 days) at the end of the experiments [3]	TOX: Number of toxic deaths/number of mice [3]	ILS% (PNU 159548 alone, iv day +1, 1 mg/kg/day, L1210 cells 10^5/mouse IV on Day 0)	ILS% [4]	LTS: long-term survivors (>60 days) at the end of the experiments [4]	TOX: Number of toxic deaths/number of mice [4]
Nc1ccn([C@@H]2O[C@H](CO)[C@@H](O)C2(F)F)c(=O)n1 [Gemcitabine, gemcitabine]	50%	0/10	0/10	83%	0/20	0/20	without toxicity	–	–	–	–	–	–
CC(=O)[C@]1(O)Cc2c(O)c3c(c(O)c2[C@@H](O[C@H]2C[C@H](N4CC4)[C@H](OS(C)(=O)=O)[C@H](C)O2)C1)C(=O)c1ccccc1C3=O [PNU 159548, 4-demethoxy-3'-deamino-3'-aziridinyl-4'-methansulfonyl daunorubicin]	–	–	–	–	–	–	without toxicity	0/10	0/10	33%	67%	0/20	0/20
